According to patent US20240197728A1, “METHODS AND PHARMACEUTICAL COMPOSITIONS FOR TREATING REFRACTORY EPILEPSY” (INSERM (INSTITUT NATIONAL DE LA SANTÉ ET DE LA RECHERCHE …, priority 2021, published 2024):

Key:
KCC2 [1] = molecular target: T1, KCC2 (Rattus norvegicus, UniProt Q63633); assay: KCC2 cluster immunocytochemistry in hippocampal neurons; type: cell-based; details: for change of KCC2 cluster area / change of KCC2 cluster density / change of KCC2 cluster intensity: vs DMSO
T1 construct: endogenous in cells; host or cells: primary rat hippocampal neurons (E18-19 Sprague-Dawley)
T1 sequence (Q63633 1-1116 isoform Q63633-2): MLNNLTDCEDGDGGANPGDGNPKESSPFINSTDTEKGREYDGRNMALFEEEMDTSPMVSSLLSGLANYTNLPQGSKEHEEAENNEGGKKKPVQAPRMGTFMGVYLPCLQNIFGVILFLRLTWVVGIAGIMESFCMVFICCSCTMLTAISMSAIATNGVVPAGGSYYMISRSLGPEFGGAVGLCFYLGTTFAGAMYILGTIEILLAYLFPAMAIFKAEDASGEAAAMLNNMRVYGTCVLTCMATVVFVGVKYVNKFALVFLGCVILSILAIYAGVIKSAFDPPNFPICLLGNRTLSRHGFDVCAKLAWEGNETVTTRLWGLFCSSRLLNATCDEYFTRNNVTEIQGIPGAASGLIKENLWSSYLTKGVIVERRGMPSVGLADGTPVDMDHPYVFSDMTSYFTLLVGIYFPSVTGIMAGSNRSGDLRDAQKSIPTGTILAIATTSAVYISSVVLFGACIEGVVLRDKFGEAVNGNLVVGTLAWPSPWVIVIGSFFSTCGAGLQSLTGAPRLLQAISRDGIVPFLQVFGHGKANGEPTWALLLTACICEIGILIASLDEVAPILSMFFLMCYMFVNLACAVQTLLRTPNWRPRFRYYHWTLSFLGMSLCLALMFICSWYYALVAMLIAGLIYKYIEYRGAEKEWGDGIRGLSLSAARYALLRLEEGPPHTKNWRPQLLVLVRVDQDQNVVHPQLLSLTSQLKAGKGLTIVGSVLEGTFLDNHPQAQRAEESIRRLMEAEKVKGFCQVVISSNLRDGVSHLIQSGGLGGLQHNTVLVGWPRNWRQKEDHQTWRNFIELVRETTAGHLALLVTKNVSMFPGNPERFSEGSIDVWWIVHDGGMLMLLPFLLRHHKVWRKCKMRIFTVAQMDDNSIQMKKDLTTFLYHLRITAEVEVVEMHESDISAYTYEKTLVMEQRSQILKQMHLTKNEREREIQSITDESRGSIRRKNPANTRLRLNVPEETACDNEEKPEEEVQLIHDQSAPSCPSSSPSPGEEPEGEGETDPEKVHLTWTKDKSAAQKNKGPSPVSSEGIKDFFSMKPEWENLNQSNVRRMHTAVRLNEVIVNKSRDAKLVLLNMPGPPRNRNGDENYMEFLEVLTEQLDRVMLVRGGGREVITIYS
Protocol: […] Drugs were added directly to the culture medium. For electrophysiology experiments, neurons were also recorded in presence of these drugs in the bath. For biochemistry experiments on rat hippocampo-cortical slices, slices were incubated with either DMSO (vehicle), CLP257, PCPZ, WNK463 or sodium orthovanadate for 2 hours in interface chambers set at 37° C. For human tissue experiments, slices were pre-incubated with either DMSO, CLP257 or PCPZ for 2 hours in interface chambers set at 37° C. and then also recorded in presence of these compounds.
Neurons were fixed for 15 min at room temperature (RT), with paraformaldehyde (PFA, 4% w/v in PBS). Cells were then washed in PBS, permeabilized with […] for 4 min at RT and then exposed to a blocking solution containing goat serum (20% v/v; Invitrogen) and 0.1% Triton X100 diluted in PBS. Neurons were incubated for 1 hour at RT with rabbit KCC2 antibody (1: 500; Sigma) and mouse MAP2 antibody (1:500; Chemicon). Neurons were then incubated for 45 min at RT with AlexaFluor 488-conjugated goat anti-mouse antibody (1:400; Jackson Labs) and with Cy3-conjugated goat anti-rabbit antibody (1:400; Jackson Labs). Neurons were then labeled with DAPI (1:2000, 5 min), washed in PBS and mounted on slides with Mowiol 844 (48 mg/ml, Sigma).
Images were acquired using a 63×objective (NA 1.40) mounted on an upright epifluorescence microscope (DM6000, Leica) equipped with a 12-bit cooled CCD camera (Micromax, Roper Scientific) operated with MetaMorph software (Roper Scientific). For KCC2 clusters detection, exposure time was adjusted to obtain best fluorescence to noise ratio and to avoid pixel saturation. This exposure time was maintained unchanged among cells and conditions. For experiments on non-transfected cells and for each neuron, dendritic sections were chosen using MAP2 labeling and then an image with tetramethylrhodamine (TRITC) filter was acquired to visualize KCC2 labeling.
KCC2 clusters analysis was performed using MetaMorph software (Roper Scientific), as previously described. Images were first flatten background filtered (kernel size, 3×3×2) to enhance cluster outline and a user-defined intensity threshold was applied to select clusters and avoid their coalescence. Clusters were delineated in the area of interest (AOI) and the corresponding regions were transferred onto raw images to quantify cluster density (mean KCC2 cluster number per 10 μm^2) and integrated cluster intensity (integrated fluorescence pixel intensity within clusters). For each culture, the analysis was done on 10 cells per condition and approx. 100 clusters per cell.

KCC2 [2] = molecular target: T1, KCC2; assay: Somato-dendritic EGABA gradient (chloride extrusion), whole-cell patch clamp of hippocampal neurons; type: cell-based

SMILES | increased KCC2 clustering observed (KCC2 [1]; 100 μM CLP257, 30 minutes) | change of KCC2 cluster area (KCC2 [1]; 100 μM CLP257, 2 h) | change of KCC2 cluster density (KCC2 [1]; 100 μM CLP257, 2 h) | change of KCC2 cluster intensity (KCC2 [1]; 100 μM CLP257, 2 h) | somato-dendritic gradient of EGABA (ΔEGABA) (KCC2 [2]; 100 μM CLP257, 2 h, RubiGABA 30 μM uncaging, control 5.32±1.08) | increased KCC2 clustering observed (KCC2 [1]; 10 μM PCPZ, 30 minutes) | change of KCC2 cluster area (KCC2 [1]; 10 μM PCPZ, 2 h) | change of KCC2 cluster density (KCC2 [1]; 10 μM PCPZ, 2 h) | change of KCC2 cluster intensity (KCC2 [1]; 10 μM PCPZ, 2 h) | somato-dendritic gradient of EGABA (ΔEGABA) (KCC2 [2]; 10 μM PCPZ, 2 h, isoguvacine 100 μM, control 6.56±0.83)
O=C1N=C(N2CCCCN2)S/C1=C\c1ccc(F)cc1O [CLP257, (5Z)-5-[(4-Fluoro-2-hydroxyphenyl)methylene]-2-(tetrahydro-1-(2H)-pyridazinyl)-4(5H)-thiazolone] | not after 30 minutes only | +36.30±20.40% | −3.48±4.20% | +33.94±13.64% | 9.70±1.13 mV/100 μm |  |  |  |  | 
CN1CCN(CCCN2c3ccccc3Sc3ccc(Cl)cc32)CC1 [PCPZ, prochlorperazine] |  |  |  |  |  | not after 30 minutes only | +45.25±18.07% | −6.58±8.37% | +109±61.44% | 11.50±1.53 mV/100 μm
